The results in this text go back to patent publication US11505543B2, “4-oxo-3,4-dihydroquinazoline compounds as inhibitors of human immunodeficiency virus replication” (VIIV HEALTHCARE UK (NO.5) LIMITED, priority 2018, dated 2022).

A short description of data set [1]: Compound cytotoxicity, XTT-based colorimetric assay. Type of data set: cell-based. The note with it: human, uninfected MT2 cells, day 4, XTT. As for the experimental part:
Compound cytotoxicity and the corresponding CC50 values were determined using the same protocol as described in the antiviral assay except that uninfected cells were used. Cytotoxicity was assessed on day 4 in uninfected MT2 cells by using a XTT (2,3-bis[2-Methoxy-4-nitro-5-sulfophenyl]-2H-tetrazolium-5-carboxyanilide inner salt)-based colorimetric assay (Sigma-Aldrich, St Louis, Mo.).

Data set [2] has as its system recombinant NL4-3 virus (nef section replaced with Renilla luciferase gene) in MT-2 cells. Nature of the data set: HIV cell culture assay (antiviral activity, luciferase readout). Type of data set: cell-based. The note with it: Renilla, NL43, MT-2 cells infected for 4-5 days with recombinant NL4-3 Renilla luciferase virus, serial dilutions of compound. As for the experimental part:
HIV cell culture assay—MT-2 cells, 293T cells and the proviral DNA clone of NL4-3 virus were obtained from the NIH AIDS Research and Reference Reagent Program. MT-2 cells were propagated in RPMI 1640 media supplemented with 10% heat inactivated fetal bovine serum (FBS), 100 μg/ml penicillin G and up to 100 units/mL streptomycin. The 293T cells were propagated in DMEM media supplemented with 10% heat inactivated FBS, 100 μg/mL penicillin G and 100 μg/mL streptomycin. A recombinant NL4-3 proviral clone, in which a section of the nef gene was replaced with the Renilla luciferase gene, was used to make the reference virus used in these studies. The recombinant virus was prepared through transfection of the recombinant NL4-3 proviral clone into 293T cells using Transit-293 Transfection Reagent from Mirus Bio LLC (Madison, Wis.). Supernatent was harvested after 2-3 days and the amount of virus present was titered in MT-2 cells using luciferase enzyme activity as a marker by measuring luciferase enzyme activity. Luciferase was quantitated using the EnduRen Live Cell Substrate from Promega (Madison, Wis.). Antiviral activities of compounds toward the recombinant virus were quantified by measuring luciferase activity in MT-2 cells infected for 4-5 days with the recombinant virus in the presence of serial dilutions of the compound.
The 50% effective concentration (EC50) was calculated by using the exponential form of the median effect equation where (Fa)=1/[1+(ED50/drug conc.)^m] (Johnson VA, Byington RT. Infectivity Assay. In Techniques in HIV Research. ed. Aldovini A, Walker BD. 71-76. New York: Stockton Press. 1990). Curve fitting and analysis were performed with ActivityBase XE Runner software version 9.1.0.4 using model 203 (ID Business Solutions, LTD, Guildford, UK).

In general, CC50 refers to the concentration giving 50% cytotoxicity. High values mean better tolerance by the cells, low ones harm at low concentration. Broadly, the EC50 is the concentration at which the effect is half-maximal. `Cc1ncc(-c2ccc3c(=O)n(-c4ccc(Cl)c5c(NS(C)(=O)=O)nn(CC(F)(F)F)c45)c([C@H](Cc4cc(F)cc(F)c4)NC(=O)Cn4nc(C(F)F)c5c4C(F)(F)[C@@H]4C[C@H]54)nc3c2)cn1` [Example 166, N-((S)-1-(3-(4-chloro-3-(methylsulfonamido)-1-(2,2,2-trifluoroethyl)-1H-indazol-7-yl)-7-(2-methylpyrimidin-5-yl)-4-oxo-3,4-dihydroquinazolin-2-yl)-2-(3,5-difluorophenyl)ethyl)-2-((3bS,4aR)-3-(difluoromethyl)-5,5-difluoro-3b,4,4a,5-tetrahydro-1H-cyclopropa[3,4]cyclopenta[1,2-c]pyrazol-1-yl)acetamide] returned a half-maximal cytotoxic concentration (CC50) at 4 day in data set [1] of more than 500 nM. Also, the EC50 in data set [2] was 0.037 nM.

With `Cc1cccc(-c2ccc3c(=O)n(-c4ccc(Cl)c5c(NS(C)(=O)=O)nn(CC(F)F)c45)c([C@H](Cc4cc(F)cc(F)c4)NC(=O)Cn4nc(C(F)F)c5c4C(F)(F)[C@@H]4C[C@H]54)nc3c2)n1` [Example 175, N-((S)-1-(3-(4-chloro-1-(2,2-difluoroethyl)-3-(methylsulfonamido)-1H-indazol-7-yl)-7-(6-methylpyridin-2-yl)-4-oxo-3,4-dihydroquinazolin-2-yl)-2-(3,5-difluorophenyl)ethyl)-2-((3bS,4aR)-3-(difluoromethyl)-5,5-difluoro-3b,4,4a,5-tetrahydro-1H-cyclopropa[3,4]cyclopenta[1,2-c]pyrazol-1-yl)acetamide], the CC50 at 4 day in data set [1] is more than 500 nM. The EC50 in data set [2] came out at 0.08 nM.

`Cc1cc(F)ccc1-c1ccc2c(=O)n(-c3ccc(Cl)c4c(NS(C)(=O)=O)nn(C)c34)c([C@H](Cc3cc(F)cc(F)c3)NC(=O)Cn3nc(C(F)F)c4c3C(F)(F)[C@@H]3C[C@H]43)nc2c1` [Example 188, N-((S)-1-(3-(4-chloro-1-methyl-3-(methylsulfonamido)-1H-indazol-7-yl)-7-(4-fluoro-2-methylphenyl)-4-oxo-3,4-dihydroquinazolin-2-yl)-2-(3,5-difluorophenyl)ethyl)-2-((3bS,4aR)-3-(difluoromethyl)-5,5-difluoro-3b,4,4a,5-tetrahydro-1H-cyclopropa[3,4]cyclopenta[1,2-c]pyrazol-1-yl)acetamide] had a CC50 at 4 day in data set [1] of more than 1000 nM. In addition, the EC50 in data set [2] stood at 1.7 nM.

In turn, `Cc1cccc(-c2ccc3c(=O)n(-c4ccc(Cl)c5c(NS(C)(=O)=O)nn(CC(F)(F)F)c45)c([C@H](Cc4cc(F)cc(F)c4)NC(=O)Cn4nc(C(F)F)c5c4C(F)(F)[C@@H]4C[C@H]54)nc3c2)n1` [Example 161, N-((S)-1-(3-(4-chloro-3-(methylsulfonamido)-1-(2,2,2-trifluoroethyl)-1H-indazol-7-yl)-7-(6-methylpyridin-2-yl)-4-oxo-3,4-dihydroquinazolin-2-yl)-2-(3,5-difluorophenyl)ethyl)-2-((3bS,4aR)-3-(difluoromethyl)-5,5-difluoro-3b,4,4a,5-tetrahydro-1H-cyclopropa[3,4]cyclopenta[1,2-c]pyrazol-1-yl)acetamide] had a CC50 at 4 day in data set [1] of more than 500 nM. Further, the EC50 in data set [2] stood at 0.12 nM.

Consider `Cn1nc(NS(C)(=O)=O)c2c(Cl)ccc(-n3c([C@H](Cc4cc(F)cc(F)c4)NC(=O)Cn4nc(C(F)F)c5c4C(F)(F)[C@@H]4C[C@H]54)nc4cc(-c5ccc(F)c(F)c5F)ccc4c3=O)c21` [Example 168, N-((S)-1-(3-(4-chloro-1-methyl-3-(methylsulfonamido)-1H-indazol-7-yl)-4-oxo-7-(2,3,4-trifluorophenyl)-3,4-dihydroquinazolin-2-yl)-2-(3,5-difluorophenyl)ethyl)-2-((3bS,4aR)-3-(difluoromethyl)-5,5-difluoro-3b,4,4a,5-tetrahydro-1H-cyclopropa[3,4]cyclopenta[1,2-c]pyrazol-1-yl)acetamide], for which, in data set [1], the CC50 at 4 day was more than 500 nM. The EC50 in data set [2] was 0.7 nM.

As to `Cc1ncc(-c2ccc3c(=O)n(-c4ccc(Cl)c5c(NS(C)(=O)=O)nn(C)c45)c([C@H](Cc4cc(F)cc(F)c4)NC(=O)Cn4nc(C(F)F)c5c4C(F)(F)[C@@H]4C[C@H]54)nc3c2)cn1` (atropisomer, axis not shown; (aR)) [Example 130, N-((S)-1-(3-(4-chloro-1-methyl-3-(methylsulfonamido)-1H-indazol-7-yl)-7-(2-methylpyrimidin-5-yl)-4-oxo-3,4-dihydroquinazolin-2-yl)-2-(3,5-difluorophenyl)ethyl)-2-((3bS,4aR)-3-(difluoromethyl)-5,5-difluoro-3b,4,4a,5-tetrahydro-1H-cyclopropa[3,4]cyclopenta[1,2-c]pyrazol-1-yl)acetamide], the half-maximal cytotoxic concentration (CC50) at 4 day in data set [1] is more than 500 nM. Besides, the concentration for a half-maximal effect (EC50) in data set [2] was 0.03 nM.

In data set [1], `Cn1nc(NS(C)(=O)=O)c2c(Cl)ccc(-n3c([C@H](Cc4cc(F)cc(F)c4)NC(=O)Cn4nc(C(F)F)c5c4C(F)(F)[C@@H]4C[C@H]54)nc4cc(-c5cc(F)ccc5F)ccc4c3=O)c21` (atropisomer, axis not shown; (aR)) [Example 99, N-((S)-1-(3-(4-chloro-1-methyl-3-(methylsulfonamido)-1H-indazol-7-yl)-7-(2,5-difluorophenyl)-4-oxo-3,4-dihydroquinazolin-2-yl)-2-(3,5-difluorophenyl)ethyl)-2-((3bS,4aR)-3-(difluoromethyl)-5,5-difluoro-3b,4,4a,5-tetrahydro-1H-cyclopropa[3,4]cyclopenta[1,2-c]pyrazol-1-yl)acetamide] gave a CC50 at 4 day of more than 1000 nM. The concentration giving a half-maximal response (EC50) in data set [2] came out at 0.68 nM.

In data set [1], `COc1ccccc1-c1ccc2c(=O)n(-c3ccc(S(=O)(=O)N4CCOCC4)cc3)c([C@H](Cc3cc(F)cc(F)c3)NC(=O)Cn3ccc(C4CC4)n3)nc2c1` [Example 142, (S)-2-(3-cyclopropyl-1H-pyrazol-1-yl)-N-(2-(3,5-difluorophenyl)-1-(7-(2-methoxyphenyl)-3-(4-(morpholinosulfonyl)phenyl)-4-oxo-3,4-dihydroquinazolin-2-yl)ethyl)acetamide] came in with a CC50 at 4 day of more than 1000 nM. Besides, the EC50 in data set [2] turned out to be 66 nM.

`Cn1nc(NS(C)(=O)=O)c2c(Cl)ccc(-n3c([C@H](Cc4cc(F)cc(F)c4)NC(=O)Cn4nc(C(F)F)c5c4C(F)(F)[C@@H]4C[C@H]54)nc4cc(-c5ccc(C(C)(C)O)cc5)ccc4c3=O)c21` (atropisomer, axis not shown; (aR)) [Example 18, N-((S)-1-(3-(4-chloro-1-methyl-3-(methylsulfonamido)-1H-indazol-7-yl)-7-(4-(2-hydroxypropan-2-yl)phenyl)-4-oxo-3,4-dihydroquinazolin-2-yl)-2-(3,5-difluorophenyl)ethyl)-2-((3bS,4aR)-3-(difluoromethyl)-5,5-difluoro-3b,4,4a,5-tetrahydro-1H-cyclopropa[3,4]cyclopenta[1,2-c]pyrazol-1-yl)acetamide] had a CC50 at 4 day in data set [1] of more than 1000 nM. Besides, the EC50 in data set [2] was determined as 0.34 nM.

The compound `CC(C)c1cccc(-c2ccc3c(=O)n(-c4ccc(Cl)c5c(NS(C)(=O)=O)nn(C)c45)c([C@H](Cc4cc(F)cc(F)c4)NC(=O)Cn4nc(C(F)F)c5c4C(F)(F)[C@@H]4C[C@H]54)nc3c2)c1` (atropisomer, axis not shown; (aR)) [Example 41, N-((S)-1-(3-(4-chloro-1-methyl-3-(methylsulfonamido)-1H-indazol-7-yl)-7-(3-isopropylphenyl)-4-oxo-3,4-dihydroquinazolin-2-yl)-2-(3,5-difluorophenyl)ethyl)-2-((3bS,4aR)-3-(difluoromethyl)-5,5-difluoro-3b,4,4a,5-tetrahydro-1H-cyclopropa[3,4]cyclopenta[1,2-c]pyrazol-1-yl)acetamide] came in with a half-maximal cytotoxic concentration (CC50) at 4 day in data set [1] of more than 1000 nM. The 50% effective concentration (EC50) in data set [2] is 4.5 nM.

In data set [1], `Cc1ccnc(-c2ccc3c(=O)n(-c4ccc(Cl)c5c(NS(C)(=O)=O)nn(CC(F)(F)F)c45)c([C@H](Cc4cc(F)cc(F)c4)NC(=O)Cn4nc(C(F)F)c5c4C(F)(F)[C@@H]4C[C@H]54)nc3c2)n1` [Example 162, N-((S)-1-(3-(4-chloro-3-(methylsulfonamido)-1-(2,2,2-trifluoroethyl)-1H-indazol-7-yl)-7-(4-methylpyrimidin-2-yl)-4-oxo-3,4-dihydroquinazolin-2-yl)-2-(3,5-difluorophenyl)ethyl)-2-((3bS,4aR)-3-(difluoromethyl)-5,5-difluoro-3b,4,4a,5-tetrahydro-1H-cyclopropa[3,4]cyclopenta[1,2-c]pyrazol-1-yl)acetamide] yielded a CC50 at 4 day of more than 500 nM. In addition, the EC50 in data set [2] amounted to 0.059 nM.
